The source of these data is patent publication US20120289681A1, “CONJUGATES OF CELL-PENETRATING PEPTIDES AND PHOSPHORESCENT METALLOPORPHYRINS FOR INTRACELLULAR OXYGEN MEASUREMENT” (UNIVERSITY COLLEGE CORK, NATIONAL UNIVERSITY OF IRELAND CORK, priority 2009, published 2012).

Starred links: 1 amine or outer side, 2 acyl side, 3 side chain; linkers in the order of their positions; H or OH if unused. Non-standard residues stand in square brackets, D forms with d. Residues, ends and D or L forms follow the SMILES beside them. No end group written: not given here. *: point of attachment. X1 = CCOC(=O)CCC1=C(C)c2cc3[nH]c(cc4nc(cc5[nH]c(cc1n2)c(C)c5CCC(=O)OCC)C(C)=C4CCC(=O)NCCNC(=O)CCN1C(=O)CC(*)C1=O)c(C)c3CCC(=O)OCC; X2 = CC1=C(CCC(=O)O)c2cc3[nH]c(cc4nc(cc5[nH]c(cc1n2)c(CCC(=O)O)c5C)C(CCC(=O)*)=C4C)c(CCC(=O)O)c3C; X3 = S=C(Nc1ccc(CCN[*:1])cc1)[*:2]; PtCP‑NCS = not defined here

Holding throughout (assay type): cell-based
Data set [1] relates to cells. As to the kind of experiment: Toxicity of the dye/probe on cells (cell line not stated).
A further data set deals with HCT116 cells. Kind of data set: Cell loading with O2 probes in HCT116 cells. As for the experimental part:
PC12 cells were seeded in standard 96-well plates pre-coated with collagen IV at 5×10^4 cells/well, and differentiated for 3-5 days in RPMI supplemented with 1% horse serum, P/S, and 100 ng/ml nerve growth factor. HepG2 cells were cultured in DMEM supplemented with 10% FBS, 2 mM L-glutamine and P/S, CHO—in Ex-Cell CHO DHFR^− medium supplemented with 4 mM L-glutamine and 1 μM methotrexate, HCT116—in McCoy medium supplemented with 10% FBS, 2 mM L-glutamine and P/S. The samples with cells were then loaded by incubating them with 1-10 μM of the O2 probe (prepared as described in Example 1) in regular medium at 37° C., 5% CO2, for the required period of time. After incubation the cells were washed 3 times with medium and 0.1 ml of fresh medium were added to each well. For comparison, some samples with cells were loaded with 1.2 μM PtCP-BSA probe (Luxcel Biosciences) in the presence of 6 μM Endo-Porter, as previously described (Zhdanov A V et al—J Biol Chem 283:5650-5661; 2008). The plate with loaded cells and control samples was then measured on a time-resolved fluorescence (TR-F) plate reader Victor 2 (PerkinElmer) set at 37° C., using 340 nm excitation and 642 nm emission filters. Each well was measured several times by taking TR-F intensity reading at delay time of 30 μs and gate time 100 μs. Measured TR-F signals were averaged and used to assess the efficiency of loading. […]

The test system of data set [2] is PC12 cells. As to the kind of experiment: Cell loading with O2 probes assessed by time-resolved fluorometry (TR-F plate reader). How it is done:
PC12 cells were seeded in standard 96-well plates pre-coated with collagen IV at 5×10^4 cells/well, and differentiated for 3-5 days in RPMI supplemented with 1% horse serum, P/S, and 100 ng/ml nerve growth factor. HepG2 cells were cultured in DMEM supplemented with 10% FBS, 2 mM L-glutamine and P/S, CHO—in Ex-Cell CHO DHFR^− medium supplemented with 4 mM L-glutamine and 1 μM methotrexate, HCT116—in McCoy medium supplemented with 10% FBS, 2 mM L-glutamine and P/S. The samples with cells were then loaded by incubating them with 1-10 μM of the O2 probe (prepared as described in Example 1) in regular medium at 37° C., 5% CO2, for the required period of time. After incubation the cells were washed 3 times with medium and 0.1 ml of fresh medium were added to each well. For comparison, some samples with cells were loaded with 1.2 μM PtCP-BSA probe (Luxcel Biosciences) in the presence of 6 μM Endo-Porter, as previously described (Zhdanov A V et al—J Biol Chem 283:5650-5661; 2008). The plate with loaded cells and control samples was then measured on a time-resolved fluorescence (TR-F) plate reader Victor 2 (PerkinElmer) set at 37° C., using 340 nm excitation and 642 nm emission filters. Each well was measured several times by taking TR-F intensity reading at delay time of 30 μs and gate time 100 μs. Measured TR-F signals were averaged and used to assess the efficiency of loading.
(§1) PC12 cells (seeded at 50,000 cells/well in standard 96 well plates and differentiated under standard conditions) were loaded with the cell-penetrating O2 probes in standard medium, using 1-10 uM probe concentrations, volume 100 ul/well and incubation time ranging from 20 min to 24 hrs. After probe loading wells were carefully washed three times with DME medium without phenol red and containing NGF. The same protocol was used for loading of adherent HCT116, HepG2 and SHSY5Y cells, using corresponding media.

The test system of data set [3] is PC12 cells. Kind of data set: Respiratory response of probe-loaded cells to stimulation with FCCP (lifetime on TR-F reader). To be noted: 1 uM FCCP. As for the experimental part:
as §1
Measurement of the cells loaded with probes was conducted on a TR-F plate reader Victor 2 (PerkinElmer, USA) at 37° C. as described in (O'Riordan T C et al—Anal Chem 79:9414-9419; 2007), using 340 nm excitation and 642 nm emission filters. Each well was measured repetitively every 1.8 minutes by taking two TR-F intensity readings at delay times of 30 μs (T1) and 70 μs (T2), using gate time 100 μs. Fluorescence intensity values at T1 (F1) and T2 (F2) were used for calculation of lifetime values using the following equation:
Lifetime [us]=(T2−T1)/ln(F1/F2),
For cell stimulation, the plate was monitored for 10-20 min to reach O2 and temperature equilibrium and obtain basal signals, then quickly withdrawn from the reader, compounds were added to the cells (10 μL of 10× stock solution) and monitoring was resumed. Metabolic effectors were added to the cells at the following final concentrations: 1 uM FCCP, 10 uM antimycin A, 0.5 uM Valinomycin, 5 mM EGTA, 100 mM KCl.

Data set [4] is described as follows: Cell viability assessment by total cellular ATP (CellTiter-Glo). Particulars: rat, differentiated PC12 cells. As for the experimental part: Cell viability was assessed by measuring total cellular ATP in the loaded cells using CellTiter-Glo luminescent kit (Promega). PC12 cells were seeded into 96 well plates at concentration 50,000/well, differentiated for 3 days, loaded with peptide probe at a concentration 10 uM for 21 hrs, then washed. CellTiter-Glo reagent was then added to each well and chemiluminescence was measured on the Victor2 plate reader (Perkin-Elmer). The total luminescence signal of unloaded cells was taken as 100% viability. For the cells loaded with probes, no significant changes in ATP were observed and cell viability was retained at 93-95%.
A general note: Cellular ATP, detected with luciferase, serves as a proxy for viable cell number.

Data set [5] has as its system cells. As to the kind of experiment: Cell-penetrating / cell-loading ability (cell line not stated).

For “Pt-tetrakis(pyridinium)porphine tetrachloride”, the “toxicity on cells (in words)” value with cells [1] is “high cyto- and phototoxicity”.
“PtCP-BN: PtCP-NCS derivative labelled on N-terminal amino group of BN (bactenecin) peptide GPRPLPFPRPG ({PtCP‑NCS}-GPRPLPFPRPG; reading uncertain)”: the “loading of HCT116 cells (in words)” value with HCT116 cells is reported as “did not load well”. In addition, the “uptake / accumulation in PC12 cells (in words)” value (from here on “uptake / accumulation”) in the data set with PC12 cells [2] is recorded as “low uptake”.
In the case of `CC1=C(CCC(=O)O)c2cc3[nH]c(cc4nc(cc5[nH]c(cc1n2)c(CCC(=O)O)c5C)C(CCC(=O)NCCc1ccc(NC(=S)N[C@@H](Cc2ccccc2)C(=O)N[C@@H](CCCNC(=N)N)C(=O)N[C@@H](CCCNC(=N)N)C(=O)N[C@@H](CCCNC(=N)N)C(=O)N[C@@H](CCCNC(=N)N)C(=O)N[C@@H](CCCNC(=N)N)C(=O)N[C@@H](CCCNC(=N)N)C(=O)N[C@@H](CCCNC(=N)N)C(=O)N[C@@H](CCCNC(=N)N)C(=O)N[C@@H](CCCNC(=N)N)C(=O)O)cc1)=C4C)c(CCC(=O)O)c3C` [PtCP-FR9] (X2-[X3]FRRRRRRRRR-OH; C-terminus assumed), in the data set with PC12 cells [3], the “magnitude of respiratory response to FCCP in lifetime units” value is given as “about 2 microseconds”. Further, the “loading of HCT116 cells (in words)” value in the data set with HCT116 cells is reported as “did not load well”. The “uptake / accumulation” value in the data set on PC12 cells [2] was “low uptake”. Moreover, the viability (usually a per cent measure of how many cells are alive, often set against a control) at 21 h, 10 µM in data set [4] was 93 to 95%.
For “PEPP5: MTS-CGR9 peptide MGRTVVVLGGGISGLAAGCGRRRRRRRRR labelled with PTCPTE-MI derivative (PTCPTE-MI label)”, in the data set on cells [5], the “cell-penetrating / cell-loading ability (in words)” value was “high cell loading efficiency”.
As to `CCOC(=O)CCC1=C(C)c2cc3[nH]c(cc4nc(cc5[nH]c(cc1n2)c(C)c5CCC(=O)OCC)C(C)=C4CCC(=O)NCCNC(=O)CCN1C(=O)CC(SC[C@H](N)C(=O)N[C@@H](Cc2ccccc2)C(=O)N[C@@H](CCCNC(=N)N)C(=O)N[C@@H](CCCNC(=N)N)C(=O)N[C@@H](CCCNC(=N)N)C(=O)N[C@@H](CCCNC(=N)N)C(=O)N[C@@H](CCCNC(=N)N)C(=O)N[C@@H](CCCNC(=N)N)C(=O)N[C@@H](CCCNC(=N)N)C(=O)N[C@@H](CCCNC(=N)N)C(=O)N[C@@H](CCCNC(=N)N)C(=O)O)C1=O)c(C)c3CCC(=O)OCC` (some centres unmarked) [PTCPTE-CFR9] (H-C(X1)FRRRRRRRRR-OH; N-terminus assumed), in the data set on PC12 cells [3], the “increase in probe lifetime on FCCP stimulation” value is 2 us and the “magnitude of respiratory response to FCCP in lifetime units” value is listed as “about 2 microseconds”. The “uptake / accumulation” value with PC12 cells [2] is given as “higher intracellular uptake than PTCPTE-TAT”. Also, the “average fluorescence signals (cell loading)” value with PC12 cells [2] (after 24 h of loading) was “about 200,000 counts”. In data set [4], this molecule displayed a viability at 21 h, 10 µM of 93 to 95%.
Consider “PtCP-BSA: conventional cell-impermeable O2 probe (Luxcel Biosciences), loaded with Endo-Porter transfection reagent [reference compound]”, for which the “average fluorescence signals (cell loading)” value in the data set on PC12 cells [2] (probe loaded by transfection (Endo-Porter)) was 60,000 cps.
